# US6448283B1, “Methods for preventing/treating damage to sensory hair cells and cochlear neurons” (Cephalon, Inc., priority 1998, dated 2002)
# “Also recorded” adds a separate entry of the source.
# Legend:
# [1] = tested on: outer hair cells in organotypic cultures of the neonatal organ of Corti; assay: Hair cell counts in neomycin-exposed cochlear explant cultures; type: cell-based, rat
# Experimental: (§1) The basal half of cochleas containing the basal and middle turns were dissected from postnatal day 2 Wistar rats. The cultures were maintained on Nuclepore filters (pore size […]; Pleasanton, Calif.) placed on a metal grid in F12 medium (Life Technologies, Gaithersburg, Md.) containing 15% fetal bovine serum (Life Technologies). After a 2-hour-long stabilization period, explants were exposed to 100 mM neomycin sulfate (Sigma, St Louis, Mo.) for 48 hr.
# (§2) Explants were fixed with 4% paraformaldehyde/0.5% glutaraldehyde in phosphate buffered saline (PBS), pH 7.4, for 30 min and dissected for surface preparations. They were stained with a 1:100 dilution of rhodamine-phalloidin in PBS containing 0.25% Triton X-l 00 overnight at 4° C. and mounted in Vectashield (Vector). Outer hair cell (OHC) numbers were quantified with a Zeiss Axiovert 100/135 epifluorescent microscope (Germany) connected to a Bio-Rad MRC-1024 confocal laser scanning system (Richmond, Calif.). Hair cells were characterized as missing if no stereocilia and cuticular plate were observed. Numbers of OHCs were evaluated using a 40×objective lens and an ocular grid. Nine to 1 fields filled by 30 OHCs in each of the 3 rows (when all of them were present) were studied from each explant. Basal and middle coils were analyzed separately. Three separate experiments, each including 4 explants of both conditions (neomycin and neomycin plus Formula II) were analyzed.
# as §1, with “μM” for “mM”, “hr. The compounds of Formula I and the compound of Formula I were added at 500 nM at the time of initiation of the cultures and every 12 hr thereafter. Neomycin plus vehicle was used as a control.” for “hr.”
# as §2, with “X-100” for “X-l 00”, “40x objective” for “40×objective”, “Several” for “Nine to 1”, “separately.” for “separately. Three separate experiments, each including 4 explants of both conditions (neomycin and neomycin plus Formula II) were analyzed.”
# [2] = tested on: JNK signaling cascade (JNK and c-Jun phosphorylation); assay: Phospho-JNK and phospho-c-Jun immunostaining in neomycin-exposed cochlear explants; type: cell-based, rat; conditions: 500 nM Formula II coincubated with neomycin; n=5 explants
# Experimental: Six, 12 and 24 hr after adding 100 μM neomycin to the medium, cochlear cultures were fixed with 4% paraformaldehyde in PBS for 30 min. The specimens were prepared for 5 um-thick paraffin sections. They were stained with a TUNEL-kit, mounted in Vectashield containing DAPI nuclear counterstain (Vector, Burlingame, Calif.), and viewed under an Olympus Provis microscope (Tokyo, Japan) using epifluorescence. In addition to TUNEL-staining, DNA fragmentation was verified under UV illumination using DAPI counterstain.
# Adjacent sections were immunostained with a polyclonal phospho-c-Jun antibody (Ser73, 1:500; New England Biolabs, Beverly, Mass.) and a polyclonal phospho-JNK antibody (Thr183/Tyr185, 1:250 dilution; New England Biolabs). The phospho-JNK antibody detects the dually phosphorylated isoforms of JNK 1, 2 and 3. The specificity of the phospho-specific antibodies was verified by Western blotting using sorbitol-treated PC 12 cells. Phospho-JNK antibody recognized the phosphorylated p54/p46 JNK and phospho-c-Jun antibody the phosphorylated p46 c-Jun in sorbitol-treated, but not in untreated PC 12 cells. […] Calbindin immunoreaction was detected using the ABC method and diaminobenzidine without tyramide signal amplification, and the sections were lightly counterstained with 1% toluidine blue. […]
# motorneurons = conditions: by inhibiting the JNK signaling pathway; Maroney et al., 1998; cited from earlier work
structure (smiles),measurement,setting,value
CCSCc1ccc2c(c1)c1c3c(c4c5cc(CSCC)ccc5n5c4c1n2C1C[C@](O)(C(=O)OC)[C@]5(C)O1)CNC3=O [Formula II],OHCs in the basal turn preserved,"[1]; 500 nM Formula II co-incubated with neomycin for 48 hr, n=12",Approximately 90%
same,neomycin-induced sensory hair cell loss/degeneration,"[1]; 500 nM compound together with neomycin, 48 hr, in words",reduced; also recorded: prevented hair cell loss
same,viability at 0.5 µM,"[1]; Rattus norvegicus, 48 h, compound 500 nM plus 100 μM neomycin 48 hr, NEO = neomycin plus vehicle, each line a separate count, read-out: % preserved",92%
same,induction of JNK and c-Jun phosphorylation in hair cells,[2],prevented
same,death of motorneurons in vitro,motorneurons,prevent death of motorneurons in vitro
